Measurements reported in patent publication US9828379B2 (priority 2013, dated 2017).

Columns and labels:
[1] = biological target: T1, ABHD6 (Mus musculus, UniProt Q8R2Y0); test: biochemical; details: in vitro competitive ABPP
T1 sequence (Q8R2Y0 1-336): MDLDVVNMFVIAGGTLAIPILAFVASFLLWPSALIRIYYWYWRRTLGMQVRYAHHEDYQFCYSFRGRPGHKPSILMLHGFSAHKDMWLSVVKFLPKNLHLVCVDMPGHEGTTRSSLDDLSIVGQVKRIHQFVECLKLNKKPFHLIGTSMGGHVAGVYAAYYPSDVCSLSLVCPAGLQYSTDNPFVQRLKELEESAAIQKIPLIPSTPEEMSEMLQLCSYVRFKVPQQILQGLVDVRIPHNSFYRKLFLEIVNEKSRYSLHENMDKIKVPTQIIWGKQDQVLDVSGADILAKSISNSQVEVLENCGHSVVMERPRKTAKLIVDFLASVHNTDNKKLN

[2] = biological target: T2, FAAH (Mus musculus, UniProt O08914); test: biochemical; details: in vitro competitive ABPP
T2 sequence (O08914 1-579): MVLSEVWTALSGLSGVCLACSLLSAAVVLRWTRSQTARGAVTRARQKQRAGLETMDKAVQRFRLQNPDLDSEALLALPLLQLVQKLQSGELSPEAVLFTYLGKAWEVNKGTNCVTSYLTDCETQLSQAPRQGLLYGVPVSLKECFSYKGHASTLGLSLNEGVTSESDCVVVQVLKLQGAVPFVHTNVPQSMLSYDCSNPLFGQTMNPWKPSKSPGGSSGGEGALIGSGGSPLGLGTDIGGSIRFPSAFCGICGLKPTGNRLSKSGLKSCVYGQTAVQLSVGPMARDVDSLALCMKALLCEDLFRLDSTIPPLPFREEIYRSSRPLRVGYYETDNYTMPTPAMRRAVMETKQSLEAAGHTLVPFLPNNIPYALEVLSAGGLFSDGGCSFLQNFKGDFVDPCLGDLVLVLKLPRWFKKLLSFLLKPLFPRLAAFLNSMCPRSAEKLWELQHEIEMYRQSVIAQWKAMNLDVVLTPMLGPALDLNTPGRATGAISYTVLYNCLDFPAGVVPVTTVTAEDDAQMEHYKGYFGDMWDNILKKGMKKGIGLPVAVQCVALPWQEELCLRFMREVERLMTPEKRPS

[3] = biological target: T3, MAGL (Mus musculus, UniProt O35678); test: biochemical; details: mouse; in vitro competitive ABPP; read-out: Mouse (IC50 value, nM) MAGL
T3 sequence (O35678 1-303): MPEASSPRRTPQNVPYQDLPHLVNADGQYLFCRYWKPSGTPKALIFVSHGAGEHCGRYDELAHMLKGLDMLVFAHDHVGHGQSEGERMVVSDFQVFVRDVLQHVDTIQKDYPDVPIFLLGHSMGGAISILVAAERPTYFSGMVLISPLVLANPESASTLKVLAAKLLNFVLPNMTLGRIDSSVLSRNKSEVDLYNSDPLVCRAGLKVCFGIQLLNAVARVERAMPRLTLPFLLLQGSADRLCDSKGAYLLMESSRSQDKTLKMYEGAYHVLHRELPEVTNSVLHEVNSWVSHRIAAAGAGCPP

[4] = biological target: T1, ABHD6; test: In vitro competitive activity-based protein profiling (Table 2, % inhibition at 1 μM); format: biochemical; details: read-out: % Inhibition at 1 μM ABHD6
[5] = biological target: T2, FAAH; test: as above; format: biochemical; details: read-out: % Inhibition at 1 μM FAAH
[6] = biological target: T3, MAGL; test: as above; format: biochemical; details: read-out: % Inhibition at 1 μM MAGL
Procedure: After 30 min, FP—Rh (1.0 μL, 50 μM in DMSO) was added and the mixture was incubated for another 30 min at 37° C. Reactions were quenched with SDS loading buffer (50 μL-4×) and run on SDS-PAGE.
Cell lysates were diluted with mock proteomes for use in competitive ABPP experiments.

| Compound | IC50 [1] [nM] | IC50 [2] [nM] | IC50 [3] [nM] | inhibition at 1 µM [4] [%] | inhibition at 1 µM [5] [%] | inhibition at 1 µM [6] [%] |
| --- | --- | --- | --- | --- | --- | --- |
| Cc1cccc(CN2CC3CN(C(=O)OC(C(F)(F)F)C(F)(F)F)CC3C2)c1N1CCCCC1 (stereo not drawn) [Example 30, 1,1,1,3,3,3-Hexafluoropropan-2-yl 5-[[3-methyl-2-(piperidin-1-yl)phenyl]methyl]-octahydropyrrolo[3,4-c]pyrrole-2-carboxylate] | 1000 to 10000 | > 10000 | 100 to 1000 | < 25 | < 25 | > 75 |
| O=C(ON1C(=O)CCC1=O)N1CC2CN(Cc3cccc(-c4ccccc4)c3)CC2C1 (stereo not drawn) [Example 88, 2,5-Dioxopyrrolidin-1-yl 5-[(3-phenylphenyl)methyl]-octahydropyrrolo[3,4-c]pyrrole-2-carboxylate] | 1000 to 10000 | 100 to 1000 | < 100 | 25 to 75 | > 75 | > 75 |
| O=C(OC(C(F)(F)F)C(F)(F)F)N1CC2CN(Cc3ccc(Cl)cc3N3CCC3)CC2C1 (stereo not drawn) [Example 39, 1,1,1,3,3,3-Hexafluoropropan-2-yl 5-[[2-(azetidin-1-yl)-4-chlorophenyl]methyl]-octahydropyrrolo[3,4-c]pyrrole-2-carboxylate] | 1000 to 10000 | 100 to 1000 | < 100 | < 25 | 25 to 75 | > 75 |
| CC(C)c1ccc(CN2CC3CN(C(=O)OC(C(F)(F)F)C(F)(F)F)CC3C2)c(N2CCCC2)c1 (stereo not drawn) [Example 23, 1,1,1,3,3,3-Hexafluoropropan-2-yl 5-[[4-(propan-2-yl)-2-(pyrrolidin-1-yl)phenyl]methyl]-octahydropyrrolo[3,4-c]pyrrole-2-carboxylate] | 1000 to 10000 | 1000 to 10000 | 100 to 1000 | < 25 | < 25 | > 75 |
| O=C(OC(C(F)(F)F)C(F)(F)F)N1CC2CN(Cc3ccc(C(F)F)cc3N3CCCCC3)CC2C1 (stereo not drawn) [Example 204, 1,1,1,3,3,3-hexafluoropropan-2-yl 5-(4-(difluoromethyl)-2-(piperidin-1-yl)benzyl)hexahydropyrrolo[3,4-c]pyrrole-2(1H)-carboxylate] | 1000 to 10000 | 1000 to 10000 | < 100 | < 25 | < 25 | > 75 |
| O=C(OC(C(F)(F)F)C(F)(F)F)N1CC2CN(Cc3ccc(N4CCCC4)cc3C(F)F)CC2C1 (stereo not drawn) [Example 202, 1,1,1,3,3,3-hexafluoropropan-2-yl 5-(2-(difluoromethyl)-4-(pyrrolidin-1-yl)benzyl)hexahydropyrrolo[3,4-c]pyrrole-2(1H)-carboxylate] | 1000 to 10000 | 1000 to 10000 | 100 to 1000 | < 25 | 25 to 75 | > 75 |
| O=C(OC(C(F)(F)F)C(F)(F)F)N1CC2CN(Cc3ccc(Cl)cc3N3CCn4ncnc4C3)CC2C1 (stereo not drawn) [Example 34, 1,1,1,3,3,3-Hexafluoropropan-2-yl 5-(4-chloro-2-(5,6-dihydro-[1,2,4]triazolo[1,5-a]pyrazin-7(8H)-yl)benzyl)-hexahydropyrrolo[3,4-c]pyrrole-2(1H)-carboxylate] | 100 to 1000 | 1000 to 10000 | < 100 | 25 to 75 | 25 to 75 | > 75 |
| CCN1CCN(c2c(C)cccc2CN2CC3CN(C(=O)OC(C(F)(F)F)C(F)(F)F)CC3C2)CC1 (stereo not drawn) [Example 148, 1,1,1,3,3,3-hexafluoropropan-2-yl 5-[[2-(4-ethylpiperazin-1-yl)-3-methylphenyl]methyl]-octahydropyrrolo[3,4-c]pyrrole-2-carboxylate] | 1000 to 10000 | > 10000 | 100 to 1000 | < 25 | < 25 | > 75 |
| O=C(ON1C(=O)CCC1=O)N1CC2CN(Cc3ccc(N4CCOCC4)cc3C(F)(F)F)CC2C1 (stereo not drawn) [Example 85, 2,5-Dioxopyrrolidin-1-yl 5-[[4-(morpholin-4-yl)-2-(trifluoromethyl)phenyl]methyl]-octahydropyrrolo[3,4-c]pyrrole-2-carboxylate] | 1000 to 10000 | 100 to 1000 | 100 to 1000 | < 25 | 25 to 75 | > 75 |
| O=C(ON1C(=O)CCC1=O)N1CC2CN(Cc3cccc(Cl)c3N3CCC(F)CC3)CC2C1 (stereo not drawn) [Example 160, 2,5-dioxopyrrolidin-1-yl 5-[[3-chloro-2-(4-fluoropiperidin-1-yl)phenyl]methyl]-octahydropyrrolo[3,4-c]pyrrole-2-carboxylate] | 1000 to 10000 | 1000 to 10000 | 100 to 1000 | 25 to 75 | 25 to 75 | > 75 |
| O=C(OC(C(F)(F)F)C(F)(F)F)N1CC2CN(Cc3ccccc3-c3ccccc3)CC2C1 (stereo not drawn) [Example 12, 1,1,1,3,3,3-Hexafluoropropan-2-yl 5-[(2-phenylphenyl)methyl]-octahydropyrrolo[3,4-c]pyrrole-2-carboxylate] | > 10000 | 1000 to 10000 | < 100 | < 25 | 25 to 75 | > 75 |
| O=C(OC(C(F)(F)F)C(F)(F)F)N1CC2CN(Cc3ccc(Cl)cc3N3CCC4(CCOCC4)C3)CC2C1 (stereo not drawn) [Example 31, 1,1,1,3,3,3-Hexafluoropropan-2-yl 5-[(4-chloro-2-[8-oxa-2-azaspiro[4.5]decan-2-yl]phenyl)methyl]-octahydropyrrolo[3,4-c]pyrrole-2-carboxylate] | 1000 to 10000 | 1000 to 10000 | < 100 | < 25 | < 25 | > 75 |
| Cc1c(CN2CC3CN(C(=O)OC(C(F)(F)F)C(F)(F)F)CC3C2)cccc1N1CCN(S(C)(=O)=O)CC1 (stereo not drawn) [Example 150, 1,1,1,3,3,3-hexafluoropropan-2-yl 5-[[3-(4-methanesulfonylpiperazin-1-yl)-2-methylphenyl]methyl]-octahydropyrrolo[3,4-c]pyrrole-2-carboxylate] | 1000 to 10000 | 1000 to 10000 | < 100 | < 25 | 25 to 75 | > 75 |
| Cc1c(CN2CC3CN(C(=O)OC(C(F)(F)F)C(F)(F)F)CC3C2)cccc1C(=O)N1CCCCC1 (stereo not drawn) [Example 187, 1,1,1,3,3,3-hexafluoropropan-2-yl 5-(2-methyl-3-(piperidine-1-carbonyl)benzyl)hexahydropyrrolo[3,4-c]pyrrole-2(1H)-carboxylate] | 1000 to 10000 | 1000 to 10000 | < 100 | 25 to 75 | < 25 | > 75 |
| O=C(OC(C(F)(F)F)C(F)(F)F)N1CC2CN(Cc3ccc(C(F)F)cc3N3CCCC3)CC2C1 (stereo not drawn) [Example 205, 1,1,1,3,3,3-hexafluoropropan-2-yl 5-(4-(difluoromethyl)-2-(pyrrolidin-1-yl)benzyl)hexahydropyrrolo[3,4-c]pyrrole-2(1H)-carboxylate] | 1000 to 10000 | 1000 to 10000 | < 100 | < 25 | < 25 | > 75 |
